Reference: patent US5556744A, “Methods and compositions for diagnosing and treating certain HIV infected patients” (The Trustees of the University of Pennsylvania, priority 1994, dated 1996)

Columns and labels:
[1] = system: HIV-1 infected cells (MN isolate); test: Anti-syncytial assay (inhibition of HIV-1 MN syncytium formation, SupT1 target cells); type: cell-based
From the text: The H9 cell line (a cutaneous T lymphoma line) infected by HIV-IIIB [ATCC CRL 8543] was used in the neutralization assay. The H9 cell line infected by HIV-MN was used in the anti-syncytial assays. SupT1 and Hut78 cells were used as the target cell lines for the anti-syncytial and neutralization assays. All cell lines were obtained from the National Institutes of Health AIDS Repository (Bethesda, Md.).
To analyze the effect of the maternal serum samples on HIV-1 fusion, SupT1 cells were used as target cells in an anti-syncytial assay. Dilutions of the different maternal serum samples were made in 96 well plates in RPMI 1640 media containing 10% fetal calf serum at final dilutions of 1:4, 1:8, 1:16, 1:32, 1:64, 1:128, 1:256 or 1:512. HIV-1 infected cells (MN isolate) were then plated in the wells at a density of approximately 10^4 cells per well. SupT1 target cells were then added at 5×10^5 /well and the number of syncytia are determined after 3 days of incubation. Inhibition of syncytium formation by a serum sample was considered significant if the dilution which yielded a 50% reduction in the number of syncytia when compared to control was greater than 1:32. The average number of syncytia in the control (normal human serum) wells at the above dilutions were: 45.5, 48.5, 44, 48, 48.5, 41.5, 42 and 45.5 respectively.

[2] = system: maternal serum samples (antibodies); test: ELISA peptide-binding of maternal sera, expanded peptide collection (Example 5); design: species or system human
Outline: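 Maternal sera diluted 1:50 or 1:500 in 1% BSA/PBS/0.05% Tween 20 were tested by ELISA on 10 μg/mL HIV IIIB gp120/gp41 peptides (~18 residues, ≥85% pure). Binding scored positive at experimental/control OD450nm ratio ≥2; HIV-seronegative human sera served as controls.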

[3] = system: maternal sera (antibodies); test: ELISA peptide-binding of maternal sera (Example 6); design: species or system human
Outline: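 Third-trimester maternal sera, from HIV-1 transmitting and non-transmitting mothers, were tested by ELISA against ~16-residue peptides spanning HIV-1 external and transmembrane glycoproteins. Each serum was run with at least 40 peptides, and values are the percentage of sera binding each peptide.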

HIV-1 = conditions: cited from earlier work

## CFRPGGGDMRDNWREL [Peptide 466]
[1]; Example 5
  Antisyncytial activity of non-transmission sera which reacted with the peptide: possessed, to varying degrees, antisyncytial activity
[1]; sera which bound the peptide
  Number of samples which bound the peptide and possessed anti-syncytial activity: all of them
[2]; of 13 non-transmission sera
  Number of non-transmission sera that reacted with the peptide: 3
[3]; Non-Transmitters, N = 12
  Number of Non-Transmitters which bound to peptide: 0
  Percent of Non-Transmitters which bound to peptide: 0%
[3]; Transmitters, N = 4
  Number of Transmitters which bound to peptide: 0
  Percent of Transmitters which bound to peptide: 0%
HIV-1; antisera (animals)
  Neutralizing activity of antisera generated to the peptide: exhibit neutralizing activity
HIV-1; in words, Example 5
  Antisyncytial and neutralizing activities elicited by the peptide: can elicit both antisyncytial and neutralizing activities

## TLPCASDAKAYDTEV [Peptide 93]
[1]; sera which bound the peptide
  Number of samples which bound the peptide and possessed anti-syncytial activity: 6
  Percent of samples which bound the peptide and possessed anti-syncytial activity: 100%
[2]; Example 5
  Binding / reactivity of maternal sera to peptide (in words): Differences in binding between the transmission and non-transmission groups are noted
